The values below come from patent publication US9751854B2 (Millennium Pharmaceuticals, Inc., priority 2014, dated 2017).

The target of one experiment is human VPS34 (Homo sapiens (Human), UniProt Q8NEB9). Put plainly: Human VPS34 enzyme assay (Adapta TR-FRET ADP detection). The note with it: for IC50: IC50 range class. Details: Percent Inhibition: dose or concentration left out as unconfirmed. The class given is biochemical. Background: In TR-FRET formats the signal depends on donor and acceptor labels being close together.

For a further experiment, the system named is A431 cell line. The experiment is described as follows: Cellular anti-proliferative assay of VPS34 inhibitors in combination with a second therapeutic agent (Cell Titer Glo, 72 hrs). In kind it is cell-based. How it is done:
(§1) Example 57: Cellular Assay for Anti-proliferative Activity of VPS34 Inhibitors in Combination with a Second Therapeutic Agent
(§2) Cells were plated in 25 μl of media in 384 well plates at 1,000 cells per well (A431, PC9, and […] cell lines), 1,500 cells per well (NCI-H1975) or 2,000 cells per well (NCI-H1650). The plates were incubated for 24 hrs at 37° C., 6% CO2. The test compounds (see Table 38 below) were diluted serially, and 62.5 nL of each compound solution (or DMSO, if it is a single agent experiment) is added so the total added to the cells is 125 nL. Cell plates were incubated for 72 hrs at 37° C., 6% CO2. Cell Titer Glo reagent (Promega) was added. The plates were then incubated for 10 minutes at room temperature before luminescence was read on a plate reader such as the Pherastar Plus, Pherastar FS, or LEADSeeker imaging system.
(§3) Bliss antagonism was defined similarly.
(§4) Bliss dependence was defined as the percent cell survival at a certain dose combination divided by the percent cell survival predicted by Bliss independence. More specifically, the Bliss dependence is vAB/(vA*vB), where vAB is the viability with drug A and drug B added, while vA and vB are the viabilities with each drug alone. The dose for the combination used in this study is the inflection point for each drug alone.
(§5) Another way to evaluate additivity is through consideration of Loewe additivity. A difference between Bliss independence and Loewe additivity evaluations of drug combination data is that Bliss independence evaluates whether two drugs interact at all (the null hypothesis is that the mechanisms are entirely independent) and Loewe additivity evaluates whether two drugs interact in an additive fashion (the null hypothesis is that the two drugs work by identical mechanisms). For Bliss independence, the boundary between additivity and synergy must be measured. For Loewe additivity, this boundary is assumed to be at a value of 1. Thus, Bliss independence provides a boundary between antagonism and synergy or additivity. Loewe additivity provides a boundary between synergy and independence or antagonism.
(§6) Synergy can also be measured by nonlinear blending synergy. Nonlinear blending synergy [Peterson, J. J. and Novik, S. J. J Recept Signal Transduct Res, 27, 12-146 (2007))] is found by considering the percent cell death values along the nonlinear blending plot. If the maximum cell death occurs between the endpoints, then the blending synergy is the difference between the maximum cell death for the combined drugs and the maximum cell death for the either drug alone.
(§7) A derivative of Loewe additivity is the Combination Index, I (see Chou T. C., Talalay P. Adv. Enzyme Reg., 22: 27-55 (1984) and Berenbaum M. C. J. Theor. Biol., 114:413-431 (1985)). This measure is based on the shape of the isobologram which represents 50% viability (for a review of the use of isobolograms in analysis of drug combinations, see Tallarida, R. J. J. Pharm. Exp. Therap. 319:1-7 (2006)).
(§8) The results in Table 38A were summarized by categorizing the Combination Index, I. A mean Combination Index in the range (0.7-1.3) is classified as Additivity. A mean in the range (0-0.7) is classified as Synergy. A mean in the range (1.3-2) is classified as Subadditivity. A mean greater than 2 is classified as Antagonism. […] In this case, the Nonlinear Blending Synergy is used instead to generate a call (Table 38B). The categorization is similar to the Combination Index. A Nonlinear Blending Synergy within the range (−20, 20) is classified as Additive. A value below −20 is classified as Antagonism, while a value above 20 is classified as Synergy.
On the technique in general: In ATP-based viability assays light output follows the ATP content of the culture.

The test system of the next experiment is NCI-H1650 cell line. Described as above. The class given is cell-based, human. The settings on record: NCI H-1650; for Blending Synergy: in combination with Erlotinib (Compound Y). The method, then: as §1, §2, §3, §4, §5, §6, §7, §8
In the next experiment the test system is NCI-H1975 cell line. The experiment is described as above. The class given is cell-based, human. How it is done: as §1, §2, §3, §4, §5, §6, §7, §8
A further experiment relates to PC9 cell line. The experiment is described as above. The class given is cell-based, human. The method, then: as §1, §2, §3, §4, §5, §6, §7, §8
The mark [1] stands for this setting: in combination with Afatinib (Compound Y).
The mark [2] stands for this setting: in combination with Afatinib, call from Combination Index.
Setting [3] is: in combination with Erlotinib (Compound Y).
Setting [4] is: in combination with Erlotinib, call from Combination Index.
Setting [5] is: in combination with AZD9291 (Compound Y).
The mark [6] stands for this setting: in combination with AZD9291, call from Combination Index.
Setting [7] is: in combination with CO-1686 (Compound Y).
The mark [8] stands for this setting: in combination with CO-1686, call from Combination Index.

Chain of human VPS34 (Q8NEB9 whole entry): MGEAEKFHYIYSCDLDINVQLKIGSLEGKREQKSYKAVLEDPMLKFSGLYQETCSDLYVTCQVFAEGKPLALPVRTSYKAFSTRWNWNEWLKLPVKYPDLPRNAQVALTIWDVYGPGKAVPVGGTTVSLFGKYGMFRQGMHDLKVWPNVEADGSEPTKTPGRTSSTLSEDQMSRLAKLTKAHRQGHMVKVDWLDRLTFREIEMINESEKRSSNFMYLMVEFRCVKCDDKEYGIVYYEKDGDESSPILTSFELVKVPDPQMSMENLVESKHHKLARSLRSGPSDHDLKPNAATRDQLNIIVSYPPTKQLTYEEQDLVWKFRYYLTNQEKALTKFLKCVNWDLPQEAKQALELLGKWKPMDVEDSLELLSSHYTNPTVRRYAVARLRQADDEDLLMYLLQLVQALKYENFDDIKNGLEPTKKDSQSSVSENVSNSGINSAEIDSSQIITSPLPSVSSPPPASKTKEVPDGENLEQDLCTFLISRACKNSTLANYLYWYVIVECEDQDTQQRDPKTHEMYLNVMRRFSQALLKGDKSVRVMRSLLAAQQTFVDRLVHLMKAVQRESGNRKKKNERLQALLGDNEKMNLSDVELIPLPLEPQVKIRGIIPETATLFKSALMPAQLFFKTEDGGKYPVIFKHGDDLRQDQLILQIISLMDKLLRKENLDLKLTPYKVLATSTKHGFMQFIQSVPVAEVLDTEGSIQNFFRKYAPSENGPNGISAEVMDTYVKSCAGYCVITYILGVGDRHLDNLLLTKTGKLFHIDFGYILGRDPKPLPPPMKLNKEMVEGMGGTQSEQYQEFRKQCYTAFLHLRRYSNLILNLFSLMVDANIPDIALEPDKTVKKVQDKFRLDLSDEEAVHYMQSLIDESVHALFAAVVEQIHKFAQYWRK

Usually IC50 stands for the point on the concentration scale where inhibition reaches its midpoint. As for `CC(=O)Nc1cc(-c2cnc(C)c(NS(=O)(=O)N(C)C)c2)ccn1` [Compound I-32, N-{5-[(dimethylsulfamoyl)amino]-6-methyl-3,4′-bipyridin-2′-yl}acetamide], on human VPS34, the IC50 is less than 10 nM. Further, the “Combination Index” value with A431 cell line (setting [1]) is listed as 0.25; in the experiment with A431 cell line (setting [3]), 0.73; in the experiment with NCI-H1650 cell line (setting [1]), 0.40; with NCI-H1975 cell line (setting [1]) it was 0.66; in the experiment on PC9 cell line (setting [1]), 0.79; with PC9 cell line (setting [3]), 0.78. Besides, the Meaning entry in the experiment with A431 cell line (setting [2]) is recorded as “Synergy (A mean in the range (0-0.7) is classified as Synergy)”; in the experiment with A431 cell line (setting [4]), “Additivity (A mean Combination Index in the range (0.7-1.3) is classified as Additivity)”; in the experiment on PC9 cell line (setting [2]), “Additivity (A mean Combination Index in the range (0.7-1.3) is classified as Additivity)”; in the experiment with PC9 cell line (setting [4]), “Additivity (A mean Combination Index in the range (0.7-1.3) is classified as Additivity)”. In addition, the “Blending Synergy” value in the experiment with NCI-H1650 cell line was determined as 22.29.

`CC(=O)Nc1cc(-c2cnc(C)c(NS(=O)(=O)c3ccc(F)cc3F)c2)ccn1` [Compound I-41, N-(5-{[(2,4-difluorophenyl)sulfonyl]amino}-6-methyl-3,4′-bipyridin-2′-yl)acetamide] returned an IC50 at human VPS34 of less than 10 nM. In addition, the “Combination Index” value in the experiment on A431 cell line (setting [5]) was 0.62; in the experiment with A431 cell line (setting [1]) it was 0.24; in the experiment on A431 cell line (setting [7]), 0.74; in the experiment with A431 cell line (setting [3]), 0.38; with NCI-H1650 cell line (setting [5]), 0.92; in the experiment with NCI-H1650 cell line (setting [1]), 0.72. Further, the “Combination Index” value is on record as 0.58 with NCI-H1650 cell line (setting [7]); 0.45 in the experiment with NCI-H1975 cell line (setting [5]); 0.58 in the experiment with NCI-H1975 cell line (setting [1]); 0.51 in the experiment on NCI-H1975 cell line (setting [7]); 0.92 in the experiment with PC9 cell line (setting [5]); 1.02 in the experiment with PC9 cell line (setting [1]). Further, the figures for the “Combination Index” value with PC9 cell line (setting [7]) and in the experiment with PC9 cell line (setting [3]) were 0.84 and 1.02, respectively. Moreover, the Meaning entry is recorded as “Synergy (A mean in the range (0-0.7) is classified as Synergy)” with A431 cell line (setting [6]); “Synergy (A mean in the range (0-0.7) is classified as Synergy)” in the experiment with A431 cell line (setting [2]); “Additivity (A mean Combination Index in the range (0.7-1.3) is classified as Additivity)” with A431 cell line (setting [8]); “Synergy (A mean in the range (0-0.7) is classified as Synergy)” in the experiment on A431 cell line (setting [4]); “Additivity (A mean Combination Index in the range (0.7-1.3) is classified as Additivity)” with PC9 cell line (setting [6]); “Additivity (A mean Combination Index in the range (0.7-1.3) is classified as Additivity)” with PC9 cell line (setting [2]). Moreover, the Meaning result in the experiment with PC9 cell line (setting [8]) and in the experiment on PC9 cell line (setting [4]) was “Additivity (A mean Combination Index in the range (0.7-1.3) is classified as Additivity)” in each case. Also, in the experiment on NCI-H1650 cell line, the “Blending Synergy” value is on record as 20.5.

For `CC(=O)Nc1cc(-c2cnc(C)c(NS(=O)(=O)c3ccc(Cl)cc3F)c2)ccn1` [Compound I-94, N-(5-{[(4-chloro-2-fluorophenyl)sulfonyl]amino}-6-methyl-3,4′-bipyridin-2′-yl)acetamide], at human VPS34, the IC50 was less than 10 nM. Moreover, the “Combination Index” value in the experiment with A431 cell line (setting [1]) amounted to 0.23; in the experiment on A431 cell line (setting [3]) it was 0.38; in the experiment with NCI-H1650 cell line (setting [1]) it was 0.65; in the experiment with NCI-H1975 cell line (setting [1]), 0.54; in the experiment with PC9 cell line (setting [1]), 1.04; with PC9 cell line (setting [3]) it was 0.91. Also, the Meaning entry with A431 cell line (setting [2]) was “Synergy (A mean in the range (0-0.7) is classified as Synergy)”; in the experiment with A431 cell line (setting [4]), “Synergy (A mean in the range (0-0.7) is classified as Synergy)”; with PC9 cell line (setting [2]) it was “Additivity (A mean Combination Index in the range (0.7-1.3) is classified as Additivity)”; with PC9 cell line (setting [4]), “Additivity (A mean Combination Index in the range (0.7-1.3) is classified as Additivity)”. In addition, in the experiment on NCI-H1650 cell line, the “Blending Synergy” value came out at 23.69.

Regarding `CC(=O)Nc1cc(-c2cnc3c(c2)S(=O)(=O)NCCO3)ccn1` [Compound I-484, N-(4-(1,1-dioxido-3,4-dihydro-2H-pyrido[2,3-b][1,4,5]oxathiazepin-8-yl)pyridin-2-yl)acetamide], the IC50 against human VPS34 lay within 50 to 100 nM.

Take `CC(=O)Nc1cc(-c2cnc(C)c(C(=O)N(C)c3ccc(F)cc3F)c2)ccn1` [Compound I-485, 2′-acetamido-N-(2,4-difluorophenyl)-N,6-dimethyl-3,4′-bipyridine-5-carboxamide]: the IC50 against human VPS34 lay in the range of 10 to 50 nM.

Turning to `Cc1nccc(Nc2cc(-c3cc(NS(=O)(=O)c4ccc(F)cc4F)c4ccnn4c3)ccn2)n1` [Compound I-486, 2,4-difluoro-N-(6-{2-[(2-methylpyrimidin-4-yl)amino]pyridin-4-yl}pyrazolo[1,5-a]pyridin-4-yl)benzenesulfonamide], the IC50 against human VPS34 is less than 10 nM.

`CC(=O)Nc1cc(-c2cnc(N(C)C)c(S(=O)(=O)NC(C)(C)C)c2C)ccn1` [Compound I-487, N-[5-(tert-butylsulfamoyl)-6-(dimethylamino)-4-methyl-3,4′-bipyridin-2′-yl]acetamide] yielded an IC50 against human VPS34 greater than 100 nM.

As for `CC(=O)Nc1cc(-c2cnc(Cl)c(NS(=O)(=O)N3CCCC3)c2C)ccn1` [Compound I-488, N-{6-chloro-4-methyl-5-[(pyrrolidin-1-ylsulfonyl)amino]-3,4′-bipyridin-2′-yl}acetamide], the concentration for half-maximal inhibition (IC50) on human VPS34 was 10 to 50 nM.

In the case of `CC(=O)Nc1cc(-c2cnc(N)c(N3CCCNS3(=O)=O)c2)ccn1` [Compound I-490, N-[6-amino-5-(1,1-dioxido-1,2,6-thiadiazinan-2-yl)-3,4′-bipyridin-2′-yl]acetamide], the IC50 at human VPS34 was less than 10 nM.

Take `CC(=O)Nc1cc(-c2cnc(N(C)C)c(S(=O)(=O)Nc3ccc(F)cc3F)c2)ccn1` [Compound I-491, N-{5-[(2,4-difluorophenyl)sulfamoyl]-6-(dimethylamino)-3,4′-bipyridin-2′-yl}acetamide]: the IC50 against human VPS34 fell in the range of 10 to 50 nM.

`CC(=O)Nc1cc(-c2cnc(C)c(OCC3CC3)c2)ccn1` [Compound I-492, N-[5-(cyclopropylmethoxy)-6-methyl-3,4′-bipyridin-2′-yl]acetamide] yielded an IC50 against human VPS34 greater than 100 nM.

Regarding `CC(=O)Nc1cc(-c2cnc(Cl)c(NS(=O)(=O)c3cn(C)nc3C(F)(F)F)c2C)ccn1` [Compound I-493, N-[6-chloro-4-methyl-5-({[1-methyl-3-(trifluoromethyl)-1H-pyrazol-4-yl]sulfonyl}amino)-3,4′-bipyridin-2′-yl]acetamide], at human VPS34, the “Percent Inhibition” value amounted to 99% and the IC50 lay in the range of 10 to 50 nM.

Turning to `CC(=O)Nc1cc(-c2cnc(C)c(NS(=O)(=O)N(C)c3ccccc3)c2)ccn1` [Compound I-494, N-(6-methyl-5-{[methyl(phenyl)sulfamoyl]amino}-3,4′-bipyridin-2′-yl)acetamide], the IC50 on human VPS34 was 50 to 100 nM.

`Cc1nccc(Nc2cc(-c3cnc(C)c(C(=O)N4CC(C)(C)C4)c3)ccn2)n1` [Compound I-495, (3,3-dimethylazetidin-1-yl){6-methyl-2′-[(2-methylpyrimidin-4-yl)amino]-3,4′-bipyridin-5-yl}methanone] showed an IC50 on human VPS34 of 10 to 50 nM.
